Consider 4 compounds from ChEMBL document CHEMBL3616451, “Design and synthesis of 11α-substituted bile acid derivatives as potential anti-tuberculosis agents” (Bioorg Med Chem Lett, 2015).

Data set [1] concerns Staphylococcus aureus. The data set is described as follows: Antibacterial activity against Staphylococcus aureus ATCC 29213 assessed as growth inhibition at 30 ug/ml relative to control. In kind it is functional.
The nature of data set [2]: (§1) Cytotoxicity against human THP1 cells after 48 hrs by MTT assay. The conditions noted are these: THP-1 cells. It is filed as cell-based, THP-1.
Data set [3] concerns THP-1. Described as §1. It is filed as cell-based. The conditions noted are these: thp-1, 48 h.
Data set [4] concerns Pseudomonas fluorescens. The data set is described as follows: Antibacterial activity against Pseudomonas fluorescens ATCC 13525 assessed as growth inhibition at 30 ug/ml relative to control. It is filed as functional. The conditions noted are these: for inhibition of growth at 30 µg/mL: read-out: GI.
Data set [5] concerns Bacillus subtilis. The data set is described as follows: Antibacterial activity against Bacillus subtilis ATCC 23857 assessed as growth inhibition at 30 ug/ml relative to control. It is filed as functional. The conditions noted are these: for inhibition of growth at 30 µg/mL: read-out: GI.
Data set [6] has as its system Escherichia coli. Put plainly: Antibacterial activity against Escherichia coli […] assessed as growth inhibition at 30 ug/ml relative to control. In kind it is functional. The conditions noted are these: for inhibition of growth at 30 µg/mL: read-out: GI.
Data set [7] can be described thus: (§2) Cytotoxicity against human A549 cells after 48 hrs by MTT assay. It is filed as cell-based. To be noted: A549 cells.
Data set [8] concerns A549. The data set is described as §2. It is filed as cell-based. To be noted: a549, 48 h.
Data set [9] can be described thus: Cytotoxicity against human PANC1 cells after 48 hrs by MTT assay. In kind it is cell-based, PANC-1. To be noted: for GI50 at 48 h: PANC-1 cells; for GI90: panc-1, 48 h.
In data set [10] the test system is Mycobacterium tuberculosis. Put plainly: Anti-tubercular activity against rifampicin, isoniazid, ethambutol and pyrazinamide-sensitive active phage of Mycobacterium tuberculosis H37Ra ATCC 25177 by serial dilution method. It is filed as functional, organism-based.
The test system of data set [11] is Mycobacterium tuberculosis. Put plainly: Anti-tubercular activity against rifampicin, isoniazid, ethambutol and pyrazinamide-sensitive Mycobacterium tuberculosis H37Ra ATCC 25177 assessed as growth inhibition at 10 ug/ml by XRMA method relative to control. It is filed as functional. To be noted: read-out: GI.
For data set [12], the system named is Mycobacterium tuberculosis. Put plainly: Anti-tubercular activity against rifampicin, isoniazid, ethambutol and pyrazinamide-sensitive Mycobacterium tuberculosis H37Ra ATCC 25177 assessed as growth inhibition at 30 ug/ml by XRMA method relative to control. In kind it is functional. The conditions noted are these: read-out: GI.
The test system of data set [13] is Mycobacterium tuberculosis. Put plainly: Anti-tubercular activity against rifampicin, isoniazid, ethambutol and pyrazinamide-sensitive Mycobacterium tuberculosis H37Ra ATCC 25177 assessed as growth inhibition at 3 ug/ml by XRMA method relative to control. It is filed as functional. The conditions noted are these: read-out: GI.
In data set [14] the test system is Mycobacterium tuberculosis. The data set is described as follows: Anti-tubercular activity against rifampicin, isoniazid, ethambutol and pyrazinamide-sensitive dormant phage of Mycobacterium tuberculosis H37Ra ATCC 25177 infected in human THP1 cells by neutral red assay. In kind it is functional, organism-based. The conditions noted are these: H37Ra ATCC 25177, THP-1.

Data set [15] has as its system Mycobacterium tuberculosis. The data set is described as follows: Anti-tubercular activity against rifampicin, isoniazid, ethambutol and pyrazinamide-sensitive dormant phage of Mycobacterium tuberculosis H37Ra ATCC 25177 by serial dilution method. It is filed as functional, organism-based.
The test system of data set [16] is Mycobacterium tuberculosis. The data set is described as follows: Anti-tubercular activity against rifampicin, isoniazid, ethambutol and pyrazinamide-sensitive active phage of Mycobacterium tuberculosis H37Ra ATCC 25177 infected in human THP1 cells by neutral red assay. In kind it is functional, organism-based. The conditions noted are these: H37Ra ATCC 25177, THP-1.

Values after ≈ are worked out from the molar mass of the structure shown. Active and inactive are the calls of the source. The rule behind the calls is not given here.

As to `COC(=O)CC[C@@H](C)[C@H]1CC[C@H]2[C@H]3[C@H]([C@H](NC(=O)C(CO)NC(=O)OC(C)(C)C)C(=O)[C@]12C)[C@@]1(C)CC[C@@H](OC(C)=O)C[C@H]1C[C@H]3OC(C)=O` (some centres undefined), the inhibition of growth at 30 µg/mL in data set [1] (read-out: GI) turned out to be 11.9%; in [4] it was 29.9%; in data set [6], 43.2%; in [12], 91%. Besides, the figures for the GI50 at 48 h in [2], in [7] and in [9] were 76.2 mg/L (≈ 108 µM), over 100 mg/L and over 100 mg/L, respectively. Further, the GI90 in data set [3], in data set [8] and in data set [9] was over 100 mg/L each time. Besides, the “growth inhibition (GI)” value in [5] is “inactive”. Moreover, the half-inhibitory concentration (IC50) in [10] was 2.7 mg/L (≈ 3.82 µM); in data set [14] it was 3.44 mg/L (≈ 4.87 µM); in data set [15] it was 6.16 mg/L (≈ 8.71 µM); in [16], 3.98 mg/L (≈ 5.63 µM). Moreover, the IC90 in data set [10] was determined as 28.9 mg/L (≈ 40.8 µM); in [14], 26.3 mg/L (≈ 37.2 µM); in data set [15], 26.3 mg/L (≈ 37.2 µM); in data set [16], 26.9 mg/L (≈ 38 µM). For the same compound, the inhibition of growth at 10 µg/mL in [11] was determined as 73%. Also, the inhibition of growth at 3 µg/mL in data set [13] worked out at 68%.

Consider `CCCCCCc1cn([C@@H]2C(=O)[C@]3(C)[C@@H]([C@H](C)CCC(=O)OC)CC[C@H]3[C@H]3[C@H]2[C@@]2(C)CC[C@@H](OC(C)=O)C[C@H]2C[C@H]3OC(C)=O)nn1`, for which the “growth inhibition (GI)” value in data set [1], in [4] and in data set [6] was “inactive” throughout. For the same compound, the concentration for 50% growth inhibition (GI50) at 48 h in data set [2], in data set [7] and in data set [9] was over 100 mg/L each time. The GI90 in [3], in data set [8] and in [9] was over 100 mg/L throughout. In addition, the figures for the inhibition of growth at 30 µg/mL in [5] and in [12] were 22.9% and 97%, respectively. Further, the IC50 in [10] came out at 0.64 mg/L (≈ 0.976 µM); in data set [14], 0.13 mg/L (≈ 0.198 µM); in [15], 0.17 mg/L (≈ 0.259 µM); in data set [16], 0.25 mg/L (≈ 0.381 µM). The IC90 amounted to 2.63 mg/L (≈ 4.01 µM) in data set [10], 1.55 mg/L (≈ 2.36 µM) in data set [14], 2.43 mg/L (≈ 3.7 µM) in [15] and 2.8 mg/L (≈ 4.27 µM) in data set [16]. In addition, in data set [11], the inhibition of growth at 10 µg/mL was 96%. Also, the inhibition of growth at 3 µg/mL in [13] came out at 91%.

`COC(=O)CC[C@@H](C)[C@H]1CC[C@H]2[C@H]3[C@H]([C@H](n4nnc5ccccc54)C(=O)[C@]12C)[C@@]1(C)CC[C@@H](OC(C)=O)C[C@H]1C[C@H]3OC(C)=O`: the “growth inhibition (GI)” value in data set [1] is “inactive”. Besides, the concentration for 50% growth inhibition (GI50) at 48 h in [2] turned out to be 29.9 mg/L (≈ 48.1 µM); in data set [7] it was 20 mg/L (≈ 32.2 µM); in data set [9] it was 50 mg/L (≈ 80.4 µM). The GI90 in data set [3], in data set [8] and in data set [9] was over 100 mg/L throughout. Besides, the inhibition of growth at 30 µg/mL in data set [4] turned out to be 46.8%; in [5] it was 8.94%; in data set [6] it was 33.8%; in [12], 96%. The IC50 in [10] is 1.08 mg/L (≈ 1.74 µM); in data set [14], 1.65 mg/L (≈ 2.65 µM); in [15], 1.27 mg/L (≈ 2.04 µM); in data set [16], 1.11 mg/L (≈ 1.79 µM). Moreover, the concentration for an effect of 90% (IC90) was 9.79 mg/L (≈ 15.7 µM) in data set [10], 8.16 mg/L (≈ 13.1 µM) in [14], 7.15 mg/L (≈ 11.5 µM) in data set [15] and 8.6 mg/L (≈ 13.8 µM) in data set [16]. Moreover, the inhibition of growth at 10 µg/mL in [11] came to 94%. Besides, the inhibition of growth at 3 µg/mL in data set [13] is 76%.

For `COC(=O)CC[C@@H](C)[C@H]1CC[C@H]2[C@H]3[C@H]([C@H](NC(=O)[C@H]4CCCN4C(=O)OC(C)(C)C)C(=O)[C@]12C)[C@@]1(C)CC[C@@H](OC(C)=O)C[C@H]1C[C@H]3OC(C)=O`, the “growth inhibition (GI)” value in [1] and in data set [5] was “inactive” in each case. The values for the concentration for 50% growth inhibition (GI50) at 48 h in data set [2], in data set [7] and in data set [9] were 46 mg/L (≈ 64.1 µM), 52 mg/L (≈ 72.5 µM) and 15 mg/L (≈ 20.9 µM), respectively. Further, the GI90 in [3], in data set [8] and in data set [9] was over 100 mg/L throughout. For the same compound, the results for the inhibition of growth at 30 µg/mL in [4], in data set [6] and in data set [12] were 61.5%, 26.8% and 94%, respectively. Besides, the IC50 in data set [10] was 3.62 mg/L (≈ 5.05 µM); in data set [14], 1.32 mg/L (≈ 1.84 µM); in [15], 2.25 mg/L (≈ 3.14 µM); in [16], 1.96 mg/L (≈ 2.73 µM). The IC90 was 27.5 mg/L (≈ 38.3 µM) in data set [10], 23.8 mg/L (≈ 33.3 µM) in data set [14], 27 mg/L (≈ 37.7 µM) in data set [15] and 27.3 mg/L (≈ 38.1 µM) in data set [16]. Besides, the inhibition of growth at 10 µg/mL in data set [11] came out at 80%. The inhibition of growth at 3 µg/mL in data set [13] was 66%.
